Assay results as given in ChEMBL document CHEMBL1129309, “Asymmetric syntheses, opioid receptor affinities, and antinociceptive effects of 8-amino-5,9-methanobenzocyclooctenes, a new class of structural analogues of the morphine alkaloids” (J Med Chem, 1996).
pKi: −log10 of the molar value.

Columns and labels:
[1] = biological target: Kappa-type opioid receptor (Cavia porcellus, UniProt P41144); test: Activity was evaluated by inhibition of the binding of 1 nM [3H]U-69593 at Opioid receptor kappa 1 binding site
[2] = biological target: Mu-type opioid receptor (Bos taurus, UniProt P79350); test: Activity was evaluated by inhibition of the binding of 0.8 nM [3H]- DAMGO at Opioid receptor mu 1 binding site
[3] = organism: Mus musculus; test: Antinociceptive action was evaluated by mouse tail flick assay at a dose of 100 nmol in the presence of morphine on 9 mice; format: functional
[4] = system: Mus musculus; test: Percent activity against delta selective antinociception when given icv injection at a dose of 10 nmol 20 min before the mouse tail flick test along with 4 nmol ICI 174864; format: functional
[5] = system: Mus musculus; test: Percent activity against delta selective antinociception when given icv injection at a dose of 10 nmol 20 min before mouse tail flick test; format: functional
[6] = organism: Mus musculus; test: Antinociceptive action was evaluated by mouse tail flick assay at a dose of 100 nmol on 10 mice; format: functional
[7] = organism: Mus musculus; test: Antinociceptive action was evaluated by mouse tail flick assay at a dose of 10 nmol on 5 mice; format: functional
[8] = organism: Mus musculus; test: Antinociceptive action was evaluated by mouse tail flick assay at a dose of 3 nmol on 9 mice; format: functional
[9] = organism: Mus musculus; test: Antinociceptive action was evaluated by mouse tail flick assay at a dose of 100 nmol in the presence of 3 nmol morphine on 5 mice; format: functional
[10] = organism: Mus musculus; test: Antinociceptive action was evaluated by mouse tail flick assay at a dose of 300 nmol on 5 mice; format: functional

Sequence of Mu-type opioid receptor (P79350 whole entry): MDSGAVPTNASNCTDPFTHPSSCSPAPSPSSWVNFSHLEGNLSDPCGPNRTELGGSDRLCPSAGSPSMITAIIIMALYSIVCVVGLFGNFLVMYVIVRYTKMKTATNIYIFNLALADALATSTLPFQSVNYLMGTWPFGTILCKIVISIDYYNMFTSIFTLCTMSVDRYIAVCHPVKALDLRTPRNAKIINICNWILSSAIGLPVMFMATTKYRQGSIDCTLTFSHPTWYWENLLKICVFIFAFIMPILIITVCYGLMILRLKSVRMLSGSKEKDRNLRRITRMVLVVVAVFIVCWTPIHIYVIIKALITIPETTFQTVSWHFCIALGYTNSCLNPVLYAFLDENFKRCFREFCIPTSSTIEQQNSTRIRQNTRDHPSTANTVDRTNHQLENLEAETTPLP
Sequence of Kappa-type opioid receptor (P41144 whole entry): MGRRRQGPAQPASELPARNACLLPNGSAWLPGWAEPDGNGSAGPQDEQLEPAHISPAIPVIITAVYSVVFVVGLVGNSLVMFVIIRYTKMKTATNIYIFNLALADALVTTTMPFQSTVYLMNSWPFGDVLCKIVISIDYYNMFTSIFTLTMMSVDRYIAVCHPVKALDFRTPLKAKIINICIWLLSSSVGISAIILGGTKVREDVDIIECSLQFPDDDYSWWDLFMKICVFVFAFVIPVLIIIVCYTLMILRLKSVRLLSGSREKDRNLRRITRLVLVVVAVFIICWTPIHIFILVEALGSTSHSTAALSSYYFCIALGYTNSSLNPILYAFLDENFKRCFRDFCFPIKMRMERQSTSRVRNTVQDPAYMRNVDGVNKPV

SMILES	pKi [1]	pKi [2]	further results
CNC1CCC2(C)CC1(CO)Cc1ccc(O)cc12 (single isomer, unassigned; (-))	6.19	6.42	–
CN(C)C1CCC2(C)CC1(C)Cc1ccc(O)cc12 (single isomer, unassigned; (-))	6.39	6.53	–
CN1CNC2CCC3(C)CC2(Cc2ccc(O)cc23)C1 (stereo unspecified)	7.76	7.56	–
CN(C)C1CCC2(C)CC1(CO)Cc1ccc(O)cc12 (single isomer, unassigned; (+))	5.54	6.08	–
COCC12Cc3ccc(O)cc3C(C)(CCC1N(C)C)C2 (single isomer, unassigned; (+))	6.91	7.60	–
COCC12Cc3ccc(O)cc3C(C)(CCC1N)C2 (stereo in doubt; (dl)-22)	8.18	8.70	Antinociception [3]: 74%
CC1(C)SSC(C)(C)[C@@H](NC(=O)[C@@H](N)Cc2ccc(O)cc2)C(=O)NCC(=O)N[C@@H](Cc2ccccc2)C(=O)N[C@H]1C(=O)O	–	–	Activity [4]: 5%; Activity [5]: 55%
COCC12Cc3ccc(O)cc3C(C)(CCC1N)C2 (stereo in doubt; (-)-3a)	7.27	8.64	Antinociception [6]: 37%
CN1CC[C@]23c4c5ccc(O)c4O[C@H]2[C@@H](O)C=C[C@H]3[C@H]1C5 [MORPHINE]	–	–	Antinociception [7]: 100%; Antinociception [8]: 65%
CNC1CCC2(C)CC1(CO)Cc1ccc(O)cc12 (single isomer, unassigned; (+))	6.36	7.38	–
COCC12Cc3ccc(O)cc3C(C)(CCC1N(C)C)C2 (single isomer, unassigned; (-))	7.22	7.71	–
CN1CC23Cc4ccc(O)cc4C(C)(CCC12)C3 (single isomer, unassigned; (+))	6.67	6.75	–
COC[C@]12Cc3ccc(O)cc3[C@](C)(CCc3nnnn31)C2	< 5.00	–	–
CC12CCC(N)C(CO)(Cc3ccc(O)cc31)C2 (single isomer, unassigned; (-))	6.96	7.39	–
CC12CCC(N)C(CO)(Cc3ccc(O)cc31)C2 (stereo in doubt; (+)-3b)	< 5.00	7.39	–
COCC12Cc3ccc(O)cc3C(C)(CCC1N)C2 (stereo in doubt; (+)3a)	7.09	8.70	Antinociception [9]: 58%; Antinociception [10]: 13%
CN(C)C1CCC2(C)CC1(C)Cc1ccc(O)cc12 (single isomer, unassigned; (+))	5.22	–	–
CNCC12Cc3ccc(O)cc3C(C)(CCC1N)C2 (stereo unspecified)	7.29	7.04	–
COCC12Cc3ccc(O)cc3[C@](C)(CCCN1C)C2 (single isomer, unassigned)	6.10	–	–
CN(C)C1CCC2(C)CC1(CO)Cc1ccc(O)cc12 (stereo in doubt; (-)-3c)	5.42	6.06	–
